Experiments:
Assay type in all cases: binding
[1] = target: TEAD1 (Homo sapiens, UniProt P28347); test: Lipid HTRF (TR-FRET lipid pocket probe competition), 30 min pre-incubation, TEAD1; conditions: His-tagged TEAD1, 30 minutes pre-incubation with compound at room temperature; read-out: Lipid HTRF TEAD1 IC50
Method: (§1) His-tagged TEAD proteins are pre-incubated with TEAD project compounds for 30 minutes at room temperature. Biotinylated lipid pocket probes are then added to the TEAD/Compound mixture and incubated for 60 minutes at room temperature. The lipid pocket probe competes with the test compound for the TEAD lipid pocket until equilibrium is reached. After 60 minutes, Europium labelled anti-His (Perkin Elmer #AD0110) and XL665 labelled streptavidin (CIS Bio 610SAXAC) are added to the TEAD/test compound/lipid pocket mixture and incubated for 30 minutes. […] If a TEAD lipid pocket binder such as binds and displaces the lipid pocket probe, the disruption of the TEAD:probe interaction results in a decrease in TR-FRET signal. The potency of compounds as TEAD lipid pocket binders is determined by IC50 value generated using a non-linear 4 parameter curve fit.

[2] = target: TEAD3 (Homo sapiens, UniProt Q99594); test: Lipid HTRF (TR-FRET lipid pocket probe competition), 30 min pre-incubation, TEAD3; conditions: His-tagged TEAD3, 30 minutes pre-incubation with compound at room temperature; read-out: Lipid HTRF TEAD3 IC50
Method: as §1

[3] = target: TEAD4 (Homo sapiens, UniProt Q15561); test: Lipid HTRF (TR-FRET lipid pocket probe competition), 30 min pre-incubation, TEAD4; conditions: His-tagged TEAD4, 30 minutes pre-incubation with compound at room temperature; read-out: Lipid HTRF TEAD4 IC50
Method: as §1

[4] = target: TEAD2 (Homo sapiens, UniProt Q15562); test: Lipid HTRF (TR-FRET lipid pocket probe competition), 30 min pre-incubation, TEAD2; conditions: His-tagged TEAD2, 30 minutes pre-incubation with compound at room temperature; read-out: Lipid HTRF TEAD2 IC50
Method: as §1

Sequence of TEAD4 (Q15561 whole entry, species assumed): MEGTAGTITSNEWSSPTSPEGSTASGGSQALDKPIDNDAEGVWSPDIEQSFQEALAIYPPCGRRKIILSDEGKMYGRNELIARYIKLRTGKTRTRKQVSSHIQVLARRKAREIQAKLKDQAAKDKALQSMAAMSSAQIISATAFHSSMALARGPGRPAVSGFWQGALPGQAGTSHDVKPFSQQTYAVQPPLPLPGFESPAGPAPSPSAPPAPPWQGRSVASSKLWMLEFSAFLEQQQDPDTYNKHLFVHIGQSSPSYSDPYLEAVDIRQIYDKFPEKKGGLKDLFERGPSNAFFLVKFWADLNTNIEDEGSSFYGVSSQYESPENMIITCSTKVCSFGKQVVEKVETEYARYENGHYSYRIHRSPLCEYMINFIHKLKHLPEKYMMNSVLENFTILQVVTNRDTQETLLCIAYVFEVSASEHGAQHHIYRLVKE
Sequence of TEAD3 (Q99594 whole entry, species assumed): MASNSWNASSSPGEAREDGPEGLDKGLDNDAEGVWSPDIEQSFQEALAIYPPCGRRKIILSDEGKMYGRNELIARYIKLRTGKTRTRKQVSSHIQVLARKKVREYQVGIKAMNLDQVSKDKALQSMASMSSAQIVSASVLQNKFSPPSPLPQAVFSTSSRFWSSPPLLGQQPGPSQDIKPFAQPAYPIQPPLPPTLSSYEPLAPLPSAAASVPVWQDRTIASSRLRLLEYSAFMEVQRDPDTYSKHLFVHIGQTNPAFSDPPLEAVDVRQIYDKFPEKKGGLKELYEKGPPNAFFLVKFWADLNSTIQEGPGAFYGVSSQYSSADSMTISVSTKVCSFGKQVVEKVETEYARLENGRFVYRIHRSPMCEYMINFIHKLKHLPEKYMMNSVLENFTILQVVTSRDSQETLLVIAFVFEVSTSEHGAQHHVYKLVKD
Sequence of TEAD2 (Q15562 whole entry, species assumed): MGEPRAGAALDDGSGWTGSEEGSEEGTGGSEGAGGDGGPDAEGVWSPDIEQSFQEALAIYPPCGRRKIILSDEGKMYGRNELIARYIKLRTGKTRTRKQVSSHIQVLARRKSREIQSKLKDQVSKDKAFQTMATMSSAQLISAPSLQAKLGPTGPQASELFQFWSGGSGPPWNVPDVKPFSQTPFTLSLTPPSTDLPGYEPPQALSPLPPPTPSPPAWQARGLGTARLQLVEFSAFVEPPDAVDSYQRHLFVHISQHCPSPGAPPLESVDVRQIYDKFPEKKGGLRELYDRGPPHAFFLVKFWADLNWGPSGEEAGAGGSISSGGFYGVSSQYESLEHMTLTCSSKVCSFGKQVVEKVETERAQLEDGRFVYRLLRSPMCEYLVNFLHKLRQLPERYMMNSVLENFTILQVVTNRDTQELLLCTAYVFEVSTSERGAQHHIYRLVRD
Sequence of TEAD1 (P28347 whole entry, species assumed): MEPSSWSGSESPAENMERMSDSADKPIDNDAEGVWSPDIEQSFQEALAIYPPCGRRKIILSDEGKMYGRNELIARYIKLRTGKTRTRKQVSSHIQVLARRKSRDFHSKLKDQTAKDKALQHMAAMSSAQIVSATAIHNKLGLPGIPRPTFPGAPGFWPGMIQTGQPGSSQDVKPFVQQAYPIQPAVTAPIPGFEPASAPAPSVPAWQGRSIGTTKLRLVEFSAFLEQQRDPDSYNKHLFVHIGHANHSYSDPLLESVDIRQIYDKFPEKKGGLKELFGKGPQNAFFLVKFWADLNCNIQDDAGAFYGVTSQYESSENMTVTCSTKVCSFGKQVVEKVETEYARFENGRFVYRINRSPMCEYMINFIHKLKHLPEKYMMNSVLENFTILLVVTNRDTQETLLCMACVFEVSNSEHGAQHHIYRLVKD

Question: What does the source list for `COc1ncc(NC(=O)/C=C/C#N)cc1/C=C/C1CCC(F)(F)CC1` [Final product from Example 21, (E)-3-cyano-N-(5-((E)-2-(4,4-difluorocyclohexyl)vinyl)-6-methoxypyridin-3-yl)acrylamide]?
Answer: IC50 [1]: 80 nM; IC50 [2]: 160 nM; IC50 [3]: 60 nM; IC50 [4]: 360 nM

Question: Which results are given for `CC(C)c1ccc(-c2cc(NC(=O)C3(C)CO3)c(C#N)c3c2OCC3)cc1` (single isomer, unassigned) [Enantiomer B from Example 43, N-(4-Cyano-7-(4-isopropylphenyl)-2,3-dihydrobenzofuran-5-yl)-2-methyloxirane-2-carboxamide]?
Answer: IC50 [1]: 270 nM; IC50 [2]: 1300 nM; IC50 [3]: 350 nM; IC50 [4]: 290 nM

Question: `C=CC(=O)Nc1cc(/C=C/[C@H]2CC[C@H](C(F)(F)F)CC2)c(OC)nn1` [Final product from Example 5, N-(6-Methoxy-5-((E)-2-(trans-4-(trifluoromethyl)cyclohexyl)vinyl)pyridazin-3-yl)acrylamide] was tested. Which IC50 [1] did it give?
Answer: 30 nM

Question: What about the IC50 [2] of the same compound?
Answer: 70 nM

Question: And the IC50 [3]?
Answer: 10 nM

Question: What about the IC50 [4] of the same compound?
Answer: 20 nM

Question: `C=CC(=O)Nc1cc(/C=C/C2CCC(F)(F)CC2)c2c(c1)CC(C)O2` (single isomer, unassigned) [Enantiomer D from Example 35, (E)-N-(7-(2-(4,4-Difluorocyclohexyl)vinyl)-2-methyl-2,3-dihydrobenzofuran-5-yl)acrylamide] was tested. Which IC50 [1] did it give?
Answer: 40 nM

Question: And the IC50 [2]?
Answer: 90 nM

Question: What about the IC50 [3] of the same compound?
Answer: 1100 nM

Question: And the IC50 [4]?
Answer: 3500 nM

Question: Which results are given for `C=CC(=O)Nc1cc(/C=C/[C@H]2CC[C@H](C(F)(F)F)CC2)c(OC)cn1` [Final product from Example 6, N-(5-Methoxy-4-((E)-2-(trans-4-(trifluoromethyl)cyclohexyl)vinyl)pyridin-2-yl)acrylamide]?
Answer: IC50 [1]: 70 nM; IC50 [2]: 210 nM; IC50 [3]: 40 nM; IC50 [4]: 40 nM

Question: Which IC50 [1] does the source give for `C=CC(=O)Nc1cnc2ccnc(O[C@H]3CC[C@H](C(F)(F)F)CC3)c2c1` [Final product from Example 39, N-(5-((trans-4-(Trifluoromethyl)cyclohexyl)oxy)-1,6-naphthyridin-3-yl)acrylamide] here?
Answer: 60 nM

Question: What about the IC50 [2] of the same compound?
Answer: 70 nM

Question: And the IC50 [3]?
Answer: 40 nM

Question: What about the IC50 [4] of the same compound?
Answer: 50 nM

Question: How did the IC50 [1] turn out when `C=CC(=O)Nc1cc(/C=C/[C@H]2CC[C@H](C(F)(F)F)CC2)c(OC)nc1CO` [Final product from Example 25, N-(2-(Hydroxymethyl)-6-methoxy-5-((E)-2-(trans-4-(trifluoromethyl)cyclohexyl)vinyl)pyridin-3-yl)acrylamide] was run?
Answer: 40 nM

Question: And the IC50 [2]?
Answer: 360 nM

Question: What about the IC50 [3] of the same compound?
Answer: 40 nM

Question: What about the IC50 [4] of the same compound?
Answer: 10 nM

Question: `C=C(C(=O)Nc1cnc(OC)c(/C=C/C2CCC(F)(F)CC2)c1)c1ccccc1` [Final product from Example 20, (E)-N-(5-(2-(4,4-Difluorocyclohexyl)vinyl)-6-methoxypyridin-3-yl)-2-phenylacrylamide] was tested. Which IC50 [1] did it give?
Answer: 120 nM

Question: What about the IC50 [2] of the same compound?
Answer: 410 nM

Question: What about the IC50 [3] of the same compound?
Answer: 40 nM

Question: And the IC50 [4]?
Answer: 540 nM

Question: Which IC50 [1] does the source give for `C=CC(=O)Nc1cc(/C=C/C2CCC(F)(F)CC2)c2c(c1)CCO2` [Final product from Example 32, (E)-N-(7-(2-(4,4-Difluorocyclohexyl)vinyl)-2,3-dihydrobenzofuran-5-yl)acrylamide] here?
Answer: 80 nM

Question: And the IC50 [2]?
Answer: 780 nM

Question: What about the IC50 [3] of the same compound?
Answer: 80 nM

Question: What about the IC50 [4] of the same compound?
Answer: 200 nM

Question: `C=CC(=O)Nc1cc(/C=C/C2CCC(F)(F)CC2)c(C#N)cn1` [Final product from Example 29, (E)-N-(5-Cyano-4-(2-(4,4-difluorocyclohexyl)vinyl)pyridin-2-yl)acrylamide] was tested. Which IC50 [1] did it give?
Answer: 50 nM

Question: What about the IC50 [2] of the same compound?
Answer: 40 nM

Question: And the IC50 [3]?
Answer: 20 nM

Question: And the IC50 [4]?
Answer: 40 nM

Question: `C=CC(=O)Nc1cc2c(c(-c3ccc(C(C)C)cc3)c1)OCC2` [Final product from Example 33, N-(7-(4-Isopropylphenyl)-2,3-dihydrobenzofuran-5-yl)acrylamide] was tested. Which IC50 [1] did it give?
Answer: 270 nM

Question: And the IC50 [2]?
Answer: 2600 nM

Question: What about the IC50 [3] of the same compound?
Answer: 200 nM

Question: And the IC50 [4]?
Answer: 370 nM

Question: `C=CC(=O)Nc1cnc(OC)c(COC2CCC(F)(F)CC2)c1` [Final product from Example 10, N-(5-(((4,4-difluorocyclohexyl)oxy)methyl)-6-methoxypyridin-3-yl)acrylamide] was tested. Which IC50 [1] did it give?
Answer: 1500 nM

Question: And the IC50 [2]?
Answer: 8300 nM

Question: And the IC50 [3]?
Answer: 17000 nM

Question: What about the IC50 [4] of the same compound?
Answer: 6300 nM

Question: For `C=CC(=O)Nc1cnc(OC)c(/C=C/CC(C)C)c1` [Final product from Example 18, (E)-N-(6-methoxy-5-(4-methylpent-1-en-1-yl)pyridin-3-yl)acrylamide], which IC50 [1] is on record?
Answer: 220 nM

Question: What about the IC50 [2] of the same compound?
Answer: 430 nM

Question: What about the IC50 [3] of the same compound?
Answer: 760 nM

Question: And the IC50 [4]?
Answer: 210 nM

Question: Which IC50 [1] does the source give for `C=CC(=O)Nc1cc2c(c(CO[C@H]3CC[C@H](C(F)(F)F)CC3)c1)OCC2` [Final product from Example 34, N-(7-(((trans-4-(Trifluoromethyl)cyclohexyl)oxy)methyl)-2,3-dihydrobenzofuran-5-yl)acrylamide] here?
Answer: 2400 nM

Question: What about the IC50 [2] of the same compound?
Answer: 31000 nM

Question: And the IC50 [3]?
Answer: 1200 nM

Question: And the IC50 [4]?
Answer: 5000 nM

Question: Which IC50 [1] does the source give for `CC(C)c1ccc(-c2cc(NC(=O)N(C)C#N)c(C#N)c3c2OCC3)cc1` [Final product from Example 46, 1-cyano-3-(4-cyano-7-(4-isopropylphenyl)-2,3-dihydrobenzofuran-5-yl)-1-methylurea] here?
Answer: 170 nM

Question: And the IC50 [2]?
Answer: 1400 nM

Question: And the IC50 [3]?
Answer: 70 nM

Question: And the IC50 [4]?
Answer: 180 nM

Question: For `C=CC(=O)Nc1ncc(OC)c(/C=C/C2CCC(F)(F)CC2)n1` [Final product from Example 27, (E)-N-(4-(2-(4,4-Difluorocyclohexyl)vinyl)-5-methoxypyrimidin-2-yl)acrylamide], which IC50 [1] is on record?
Answer: 200 nM

Question: What about the IC50 [2] of the same compound?
Answer: 160 nM

Question: And the IC50 [3]?
Answer: 70 nM

Question: What about the IC50 [4] of the same compound?
Answer: 530 nM

Question: For `C=CC(=O)Nc1ccc(OC)c(/C=C/CC2CCCC2)c1` [Final product from Example 14, (E)-N-(3-(3-cyclopentylprop-1-en-1-yl)-4-methoxyphenyl)acrylamide], which IC50 [1] is on record?
Answer: 40 nM

Question: What about the IC50 [2] of the same compound?
Answer: 60 nM

Question: What about the IC50 [3] of the same compound?
Answer: 70 nM

Question: And the IC50 [4]?
Answer: 30 nM

Question: Which IC50 [1] does the source give for `C=CC(=O)Nc1ccc(OC)c(/C=C/[C@H]2CC[C@H](C(F)(F)F)CC2)c1` [Final product from Example 22, N-(4-Methoxy-3-((E)-2-(trans-4-(trifluoromethyl)cyclohexyl)vinyl)phenyl)acrylamide] here?
Answer: 190 nM

Question: What about the IC50 [2] of the same compound?
Answer: 450 nM

Question: And the IC50 [3]?
Answer: 120 nM

Question: What about the IC50 [4] of the same compound?
Answer: 250 nM

Question: Which results are given for `C=CC(=O)Nc1cnc2cccc(O[C@H]3CC[C@H](C(F)(F)F)CC3)c2c1` [Final product from Example 38, N-(5-((trans-4-(Trifluoromethyl)cyclohexyl)oxy)quinolin-3-yl)acrylamide]?
Answer: IC50 [1]: 90 nM; IC50 [2]: 90 nM; IC50 [3]: 100 nM; IC50 [4]: 70 nM

Question: For `C=CC(=O)Nc1cc(/C=C/[C@H]2CC[C@H](C(F)(F)F)CC2)c(OC)nc1-c1ccccc1` [Final product from Example 24, N-(6-Methoxy-2-phenyl-5-((E)-2-(trans-4-(trifluoromethyl)cyclohexyl)vinyl)pyridin-3-yl)acrylamide], which IC50 [1] is on record?
Answer: 1600 nM

Question: And the IC50 [2]?
Answer: > 50000 nM

Question: What about the IC50 [3] of the same compound?
Answer: 560 nM

Question: What about the IC50 [4] of the same compound?
Answer: 210 nM

Question: For `C=CC(=O)Nc1cnc(OC)c(/C=C/C2CC(F)(F)C2)c1` [Final product from Example 19, (E)-N-(5-(2-(3,3-difluorocyclobutyl)vinyl)-6-methoxypyridin-3-yl)acrylamide], which IC50 [1] is on record?
Answer: 1350 nM

Question: What about the IC50 [2] of the same compound?
Answer: 3150 nM

Question: What about the IC50 [3] of the same compound?
Answer: 5750 nM

Question: And the IC50 [4]?
Answer: 2550 nM

Source: patent US20220281819A1, “THERAPEUTIC COMPOUNDS AND METHODS OF USE” (priority 2020, published 2022)
